Where two headings read alike, the source gives them in different places.
Key:
[1] = test system: enzalutamide resistant VCaP xenograft; experiment: Enzalutamide-resistant VCaP xenograft model; format: in vivo
[2] = Phase I clinical trial pharmacokinetics; settings: male, human, in vivo, po, once daily
Description: (§1) A traditional 3+3 dose escalation design was implemented. […] Dose increases were dependent upon toxicities.

[3] = Phase I dose escalation safety in mCRPC patients
Description: as §1

in vivo = settings: dog, po
[4] = 28-day GLP toxicology study in rats
BCRP = biological target: T1, BCRP (Homo sapiens, UniProt Q9UNQ0); experiment: In vitro transporter inhibition, BCRP
T1 sequence (Q9UNQ0 1-655): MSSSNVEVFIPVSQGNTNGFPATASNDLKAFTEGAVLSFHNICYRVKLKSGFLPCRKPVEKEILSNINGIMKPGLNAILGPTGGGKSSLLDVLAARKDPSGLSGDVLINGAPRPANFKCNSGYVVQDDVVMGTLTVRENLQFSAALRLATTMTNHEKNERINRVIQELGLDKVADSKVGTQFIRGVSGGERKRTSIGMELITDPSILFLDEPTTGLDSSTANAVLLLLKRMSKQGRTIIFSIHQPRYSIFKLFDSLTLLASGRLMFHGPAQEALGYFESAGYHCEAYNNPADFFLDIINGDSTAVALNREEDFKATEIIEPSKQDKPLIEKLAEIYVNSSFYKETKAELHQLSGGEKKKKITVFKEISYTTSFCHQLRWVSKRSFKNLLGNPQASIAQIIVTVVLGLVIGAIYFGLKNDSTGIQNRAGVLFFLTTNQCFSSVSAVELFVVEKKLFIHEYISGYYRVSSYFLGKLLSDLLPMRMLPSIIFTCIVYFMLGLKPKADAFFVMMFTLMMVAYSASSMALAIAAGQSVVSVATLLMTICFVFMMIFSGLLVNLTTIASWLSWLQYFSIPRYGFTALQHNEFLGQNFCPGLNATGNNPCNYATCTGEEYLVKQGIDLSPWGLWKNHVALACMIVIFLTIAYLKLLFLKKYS

OATP1B1 = OATP1B1 (Homo sapiens, UniProt Q9Y6L6); experiment: In vitro transporter inhibition, OATP1B1
OATP1B1, sequence (Q9Y6L6 whole entry): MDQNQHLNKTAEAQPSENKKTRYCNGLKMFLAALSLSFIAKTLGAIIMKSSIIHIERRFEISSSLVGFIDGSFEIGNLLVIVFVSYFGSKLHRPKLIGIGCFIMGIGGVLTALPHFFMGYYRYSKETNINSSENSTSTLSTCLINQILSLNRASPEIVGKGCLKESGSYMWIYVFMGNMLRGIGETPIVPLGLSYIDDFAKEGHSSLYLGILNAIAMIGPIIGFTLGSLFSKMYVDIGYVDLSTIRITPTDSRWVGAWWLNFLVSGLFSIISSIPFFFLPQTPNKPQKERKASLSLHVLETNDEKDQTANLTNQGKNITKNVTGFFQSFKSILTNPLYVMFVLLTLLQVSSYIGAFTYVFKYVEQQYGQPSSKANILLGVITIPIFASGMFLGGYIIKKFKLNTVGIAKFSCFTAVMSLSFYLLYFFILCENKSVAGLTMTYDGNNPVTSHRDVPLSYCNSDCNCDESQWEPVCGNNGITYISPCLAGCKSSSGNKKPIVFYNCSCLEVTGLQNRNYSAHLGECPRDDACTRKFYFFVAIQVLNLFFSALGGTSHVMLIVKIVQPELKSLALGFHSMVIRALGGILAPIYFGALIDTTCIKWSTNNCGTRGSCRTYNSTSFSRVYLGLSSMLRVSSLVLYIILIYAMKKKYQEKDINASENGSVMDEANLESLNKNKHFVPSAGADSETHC

OATP1B3 = OATP1B3 (Homo sapiens, UniProt Q9NPD5); experiment: In vitro transporter inhibition, OATP1B3
OATP1B3, sequence (Q9NPD5 whole entry): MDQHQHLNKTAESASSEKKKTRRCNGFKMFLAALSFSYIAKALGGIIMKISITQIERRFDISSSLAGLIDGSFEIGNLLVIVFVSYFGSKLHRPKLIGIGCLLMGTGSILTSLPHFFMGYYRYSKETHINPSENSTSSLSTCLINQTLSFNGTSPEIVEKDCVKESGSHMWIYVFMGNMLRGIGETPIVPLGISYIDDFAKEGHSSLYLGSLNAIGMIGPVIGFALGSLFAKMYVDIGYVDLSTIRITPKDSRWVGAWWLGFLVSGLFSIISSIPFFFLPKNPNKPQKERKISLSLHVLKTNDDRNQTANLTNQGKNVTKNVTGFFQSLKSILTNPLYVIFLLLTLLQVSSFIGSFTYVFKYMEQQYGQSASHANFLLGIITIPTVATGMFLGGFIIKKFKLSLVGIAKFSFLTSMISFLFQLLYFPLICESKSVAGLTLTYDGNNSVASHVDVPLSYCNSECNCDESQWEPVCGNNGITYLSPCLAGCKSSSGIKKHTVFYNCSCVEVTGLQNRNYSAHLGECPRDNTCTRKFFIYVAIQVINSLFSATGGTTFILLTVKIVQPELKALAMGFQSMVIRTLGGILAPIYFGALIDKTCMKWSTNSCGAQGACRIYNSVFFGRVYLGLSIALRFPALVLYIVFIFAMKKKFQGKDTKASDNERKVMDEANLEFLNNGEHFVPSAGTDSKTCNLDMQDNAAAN

[5] = Preclinical pharmacokinetics, oral once daily (Table 1); settings: total drug concentrations
[6] = Exploratory non-GLP assay of rosuvastatin in retained patient plasma samples; format: in vivo, human; settings: 2 patients taking rosuvastatin concurrently with Compound (I-g)
Description: An exploratory, non-GLP method was developed to analyze for rosuvastatin and its major metabolite N-desmethyl rosuvastatin in retained pharmacokinetic plasma samples from the 2 patients.

[7] = 280 mg QD patient with rosuvastatin 20 mg QD, level before decrease
[8] = same patient, within 14 days after Compound (I-g) and rosuvastatin were discontinued
[9] = 3 and 10 μM, preliminary study, solubility limitation

For N#Cc1ccc(O[C@H]2CC[C@H](NC(=O)c3ccc(N4CCC(CN5CCN(c6cc7c(cc6F)C(=O)N(C6CCC(=O)NC6=O)C7=O)CC5)CC4)nn3)CC2)cc1Cl (stereo partly shown) [Compound (I-g)], the tumor growth inhibition ([1]; 3 mg/kg oral once daily, compared to a control group) was 70%, the “AR in enzalutamide-resistant VCaP tumors (Western blot)” value ([1]; 10 mg/kg and 3 mg/kg oral, once daily, FIG. 6) was “reduction of AR” and the lowest efficacious dose ([1]; oral, once daily, enzalutamide-resistant VCaP model) was 3 mg/kg. It also gave an AUC(0-t) ([2]; 35 mg, Mean Day 1 AUC0-24, 35 mg oral) of 160 ng·h/mL, a Cmax ([2]; 35 mg, Mean Day 1 Cmax, 35 mg oral) of 11.1 ng/mL and an AUC(0-t) ([2]; 35 mg, Mean Day 15 AUC0-24, 35 mg oral, imputed 24 hours values) of 1700 ng·h/mL. It also gave a Cmax ([2]; 35 mg, Mean Day 15 Cmax, 35 mg oral) of 83 ng/mL, an AUC(0-t) ([2]; 70 mg, Mean Day 1 AUC0-24, 70 mg oral) of 300 ng·h/mL and a Cmax ([2]; 70 mg, Mean Day 1 Cmax, 70 mg oral) of 19.6 ng/mL. It also gave an AUC(0-t) ([2]; 70 mg, Mean Day 15 AUC0-24, 70 mg oral, imputed 24 hours values) of 2540 ng·h/mL, a Cmax ([2]; 70 mg, Mean Day 15 Cmax, 70 mg oral) of 141 ng/mL and an AUC(0-t) ([2]; 140 mg, Mean Day 1 AUC0-24, 140 mg oral) of 865 ng·h/mL. It also gave a Cmax ([2]; 140 mg, Mean Day 1 Cmax, 140 mg oral) of 54 ng/mL, an AUC(0-t) ([2]; 140 mg, Mean Day 15 AUC0-24, 140 mg oral, imputed 24 hours values) of 5020 ng·h/mL and a Cmax ([2]; 140 mg, Mean Day 15 Cmax, 140 mg oral) of 353 ng/mL. The adverse events ([3]; 35 mg/day cohort) was “no adverse events at grades 2, 3 or 4 were observed”, the dose limiting toxicity ([3]; 35 mg/day cohort) was “no dose limiting toxicity was observed” and the “AST/ALT elevation on second re-challenge” value ([3]; 70 mg QD following discontinuation of rosuvastatin) was “no other AST/ALT elevation has been observed for 90 days”. For the same compound, the “AST/ALT elevation on re-challenge” value ([3]; 70 mg QD while continuing rosuvastatin) was “second instance of Grade 3 AST/ALT elevation”, the adverse events ([3]; 70 mg/day cohort) was “no adverse events at grades 2, 3 or 4 have been observed, with the exception of grade 3 anemia that was unrelated to the administration of compound (I-g)” and the dose limiting toxicity ([3]; 70 mg/day cohort) was “no dose limiting toxicity has been observed”. For the same compound, the adverse events ([3]; 140 mg/day cohort) was “no adverse events at grades 2, 3 or 4 have been observed”, the dose limiting toxicity ([3]; 140 mg/day cohort) was “no dose limiting toxicity has been observed” and the dose limiting toxicity ([3]; 280 mg QD cohort (3 patients), patient taking rosuvastatin 20 mg QD) was “one patient experienced dose limiting toxicity (DLT) of Grade 4 AST/ALT elevation followed by Grade 4 acute renal failure”. The ALT level [3, 7] was 4116 U/L, the AST level [3, 7] was 4901 U/L and the overall tolerability ([3]; 18 patients, 35 mg to 280 mg QD) was “well tolerated”. The “time to resolution of Grade 3 AST/ALT elevation to Grade 1” value ([3]; after dose interruption, 140 mg QD patient with rosuvastatin 40 mg QD) was no more than 5 days, the ALT level [3, 8] was 83 U/L and the AST level [3, 8] was 280 U/L. The “histopathology correlated with AST/ALT elevations” value (dogs) was “No correlated histopathology changes were observed”, the gastrointestinal alterations (dogs, 3, 10 or 30 mg/kg oral once daily) was “observed at all dose levels (including vehicle alone)” and the “AST and ALT” value (dogs, 10 or 30 mg/kg/day, study days 14 and 29) was “reversible elevations of AST and ALT”. The renal impairment (dogs, 28-day GLP study) was “No evidence of renal impairment was observed”, the prostate weights (male dogs) was “decreased prostate weights” and the MTD at 28 days (in vivo) was less than 30 mg/kg. The “body weight and food consumption” value ([4]; 80 mg/kg female rat cohort) was “lost body weight and consumed less food”, the “reversibility of findings in male high-dose rats” value ([4]; male high-dose rats, 14-day recovery) was “fully reversible (liver hypertrophy, femur physis thickening)” and the prostate weights ([4]; male rats) was “decreased prostate weights”. For the same compound, the renal impairment ([4]; rats, 28-day GLP study) was “No evidence of renal impairment was observed”, the tolerability ([4]; rats, oral once daily, 28 days, males 20, 60, 120 mg/kg, females 20, 40, 120 mg/kg) was “well tolerated at all doses, with the exception of the 80 mg/kg female cohort” and the IC50 (BCRP) was greater than 10 µM. The “inhibition of BCRP” value (BCRP; [9]) was “no inhibition”, the IC50 (OATP1B1) was greater than 10 µM and the “inhibition of OATP1B1” value (OATP1B1; [9]) was “no inhibition”. The IC50 (OATP1B3) was greater than 10 µM, the “inhibition of OATP1B3” value (OATP1B3; [9]) was “no inhibition” and the “Mean AUC0-24” value ([5]; 1 mg/kg oral) was 3628 ng·h/mL. The “Mean Cmax” value ([5]; 1 mg/kg oral) was 224 ng/mL, the “Mean AUC0-24” value ([5]; 3 mg/kg oral) was 8106 ng·h/mL and the “Mean Cmax” value ([5]; 3 mg/kg oral) was 507 ng/mL.
With CC(C)c1nc(N(C)S(C)(=O)=O)nc(-c2ccc(F)cc2)c1/C=C/[C@@H](O)C[C@@H](O)CC(=O)O [Rosuvastatin, rosuvastatin] the rosuvastatin plasma concentrations [6] was “increased concurrently with the increase in AST/ALT levels in both patients”.
